Measurements: patent US11198741B2, “Medicines for topic use based on sulfated hyaluronic acid as activating or inhibiting agent of the cytokine activity” (Fidia Farmaceutici S.p.A., priority 2009, dated 2021)

Experiments:
[1] = tested on: Vesicular stomatitis virus: VSV; format: cell-based
[2] = target: T1, fibrin clot (Homo sapiens, UniProt P02671+P02675+P02679); test: In vitro fibrinolytic activity: dissolution of fibrin clot in coagulated plasma (absorbance at 405 nm); format: biochemical; settings: 37° C.
T1 sequence (P02671 20-644 isoform P02671-2 limits assumed): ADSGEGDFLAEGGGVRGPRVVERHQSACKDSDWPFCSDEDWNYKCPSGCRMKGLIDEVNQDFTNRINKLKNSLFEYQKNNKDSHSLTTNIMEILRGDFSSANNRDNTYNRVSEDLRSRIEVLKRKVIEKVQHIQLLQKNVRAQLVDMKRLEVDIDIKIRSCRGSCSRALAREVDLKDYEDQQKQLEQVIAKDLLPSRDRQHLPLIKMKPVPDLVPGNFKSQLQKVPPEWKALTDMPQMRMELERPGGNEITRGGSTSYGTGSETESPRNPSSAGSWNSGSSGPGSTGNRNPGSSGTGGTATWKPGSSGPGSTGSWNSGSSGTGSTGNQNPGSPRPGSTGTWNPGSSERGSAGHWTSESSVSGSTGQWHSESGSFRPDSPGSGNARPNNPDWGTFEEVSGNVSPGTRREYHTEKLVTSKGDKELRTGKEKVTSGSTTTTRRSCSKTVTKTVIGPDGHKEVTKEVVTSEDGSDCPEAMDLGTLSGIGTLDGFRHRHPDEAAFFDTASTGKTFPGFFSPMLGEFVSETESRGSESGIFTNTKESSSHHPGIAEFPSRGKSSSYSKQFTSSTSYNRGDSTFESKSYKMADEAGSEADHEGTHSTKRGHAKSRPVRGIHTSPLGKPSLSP
T1 sequence (P02675 45-491 limits assumed): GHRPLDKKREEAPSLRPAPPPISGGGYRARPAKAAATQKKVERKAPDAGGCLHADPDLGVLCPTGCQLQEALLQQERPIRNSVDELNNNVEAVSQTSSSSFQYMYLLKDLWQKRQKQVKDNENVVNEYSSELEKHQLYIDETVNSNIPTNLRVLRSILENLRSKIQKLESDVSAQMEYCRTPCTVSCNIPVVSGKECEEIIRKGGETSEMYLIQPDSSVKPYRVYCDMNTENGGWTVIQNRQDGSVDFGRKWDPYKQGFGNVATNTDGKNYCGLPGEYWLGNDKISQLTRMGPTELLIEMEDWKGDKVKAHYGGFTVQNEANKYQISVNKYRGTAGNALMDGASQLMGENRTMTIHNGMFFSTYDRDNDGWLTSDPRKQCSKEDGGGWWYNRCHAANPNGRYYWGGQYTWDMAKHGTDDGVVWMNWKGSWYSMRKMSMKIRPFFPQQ
T1 sequence (P02679 27-437 isoform P02679-2 limits assumed): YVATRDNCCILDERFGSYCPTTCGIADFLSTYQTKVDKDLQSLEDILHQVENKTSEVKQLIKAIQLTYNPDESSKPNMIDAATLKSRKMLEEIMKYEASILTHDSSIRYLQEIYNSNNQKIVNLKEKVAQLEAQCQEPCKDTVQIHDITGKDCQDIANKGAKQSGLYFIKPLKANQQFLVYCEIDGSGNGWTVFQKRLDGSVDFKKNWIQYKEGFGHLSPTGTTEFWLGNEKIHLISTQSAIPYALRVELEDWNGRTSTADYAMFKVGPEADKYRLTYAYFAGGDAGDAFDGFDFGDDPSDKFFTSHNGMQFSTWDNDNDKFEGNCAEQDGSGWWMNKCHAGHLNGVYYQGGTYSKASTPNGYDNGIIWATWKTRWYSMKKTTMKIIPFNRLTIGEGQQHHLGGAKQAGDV
Description: The evaluation of the fibrinolytic properties of the products subjected to the test was compared with the acknowledged fibrinolytic activity of the plasmin. In particular, the dissolution rate of the fibrin network and formation of soluble products of the fibrin degradation (FDP), was evaluated.
In order to test the fibrinolytic effectiveness of the products subjected to testing, the blood samples were distributed in various test-tubes in which the clot formation was induced.
The formation of FDP was then evaluated after the addition of:
The freshly removed blood samples were distributed in various test-tubes containing sodium citrate in a ratio of 9:1. The test-tubes were immediately centrifuged at 3,000 rpm for 5 minutes. The plasma obtained was transferred to a new test-tube and immediately used for effecting the FDP evaluation.
Thrombin (300 mU/ml), preheated to 37° C. was added to the plasma samples, as activator of the fibrinogen in inducing the formation of the clot.
The following were added to the different cuvettes containing the fibrin clot:
a plasmin solution 0.5 mU, 5 mU, 50 mU, 500 mU and 1 U
solutions of HAS3 at concentrations of 25 mg/ml, 50 mg/ml, 100 mg/ml, 150 mg/ml and 200 mg/ml.
The absorbance variation at 405 nm for 60 sec. was evaluated spectrophotometrically for each cuvette. The reaction was left to proceed until the complete dissolution of the clot.
Coagulated plasma, plasmin solution and a solution of HAS3 200 KD and HAS3 20 KD were mixed in a ratio of 1:1 v/v and maintained at an operating temperature of 37° C.

[3] = tested on: IL-12; test: Protein synthesis of IL-12 in human PBMC (SearchLight array); settings: not stimulated or stimulated with LPS or PHA (10 μg/ml), 24 hours, FIG. 8: 1 mg/ml, vs HA
Description: For these experimentations, mononucleate cells of human peripheral blood (PBMC) were adopted, deriving from various donors for evaluating the effect of HAS on the production of the cytokines listed above, using:
The separation of the PBMC (Bøyum A., Scand J Clin Lab Invest 21 Suppl, 1968, 97:77-89) was effected using the product Ficoll-Paque PLUS (GE Healthcare) and following the protocol indicated by the supplier. At day zero 100,000 cells were plated per well (using plates with 96 wells) in 200 μl of medium RPMI 1640, to which 10% of fetal bovine serum, HEPES 10 mM, Glutamine 2 mM, 1% Penicillin-Streptomycin 100 U/ml, had been added. […] The cells were treated separately with the three compounds at a concentration of 0.1 mg/ml or 1 mg/ml. After 24 hours of incubation at 37° C. (5% CO2), 100 μl of supernatant were taken from each well in order to analyze the production of IL-2, IL-7, IL-10 and IL-12.
The quantification of the inflammation mediators was effected by means of the SearchLight® technology, using a Custom Human 9-flex Array plate following the protocol indicated by the supplier in the technical card.

Substance: sulfated hyaluronic acid degree 3 [HAS3]
- antiviral activity (inhibition of the cytopathogenicity of the virus) vs VSV [1]: very powerful antiviral activity
- fibrinolytic activity (expressed in mU equivalents of Plasmin) ([2]; 25 mg/ml): 0.5 mU
- fibrinolytic activity (expressed in mU equivalents of Plasmin) ([2]; 50 mg/ml): 3 mU
- fibrinolytic activity (expressed in mU equivalents of Plasmin) ([2]; 100 mg/ml): 10 mU
- fibrinolytic activity (expressed in mU equivalents of Plasmin) ([2]; 150 mg/ml): 50 mU
- fibrinolytic activity (expressed in equivalents of Plasmin) ([2]; 200 mg/ml): 1.1 U
- synthesis of IL-12 [3]: significantly reducing
